Test results as given in patent US5500428A, “Furyl-substituted purines and adenosine antagonists” (Imperial Chemical Industries PLC, priority 1991, dated 1996).

Target: T1, A2 Adenosine receptor (Rattus norvegicus, UniProt P30543)
T1 construct: membrane preparations derived from the rat phaeochromocytoma cell line PC 12; host or cells: PC 12 rat phaeochromocytoma cells, membranes
Assay: A2 Adenosine receptor affinity test: displacement of [3H]-NECA from PC 12 cell membrane preparations
Type: binding
Experimental: The membrane preparation is obtained as follows: Frozen pellets of PC12 cells are washed twice with ice cold, buffered, physiological saline and the cells recovered by centrifugation (1500 G) at 3° C. The separated cells are then suspended in hypotonic solution (distilled water), allowed to stand on ice for 30 minutes and are then carefully homogenized using a standard high-speed homogeniser with periodic ice-cooling to obtain a fine suspension. […] The mixture is then incubated at 37° C. After 20 minutes, the reaction is terminated by dilution with ice-cold buffer and transfer onto ice. The material obtained containing the cell membranes is recovered by centrifugation and washed by resuspension in buffer and recentrifugation. The pellet produced is then resuspended in ice-cold buffer using a hand-driven homogenizer. The resultant membrane suspension is frozen and stored under liquid nitrogen until required.
After incubation, the samples are rapidly filtered over glass-fibre mats and the filter mats are washed to remove non-receptor-bound radioligand. Receptor-bound radioligand entrapped on the filter mats is then determined by liquid scintillation counting. Filtration and washing are carried out using a conventional vacuum filtration cell harvester. The specific binding (defined as the difference between the total binding and the non-specific binding) in the presence of the particular test compound is determined and compared with the control value.

[1] = read-out: displacement of control binding

T1 sequence (P30543 whole entry): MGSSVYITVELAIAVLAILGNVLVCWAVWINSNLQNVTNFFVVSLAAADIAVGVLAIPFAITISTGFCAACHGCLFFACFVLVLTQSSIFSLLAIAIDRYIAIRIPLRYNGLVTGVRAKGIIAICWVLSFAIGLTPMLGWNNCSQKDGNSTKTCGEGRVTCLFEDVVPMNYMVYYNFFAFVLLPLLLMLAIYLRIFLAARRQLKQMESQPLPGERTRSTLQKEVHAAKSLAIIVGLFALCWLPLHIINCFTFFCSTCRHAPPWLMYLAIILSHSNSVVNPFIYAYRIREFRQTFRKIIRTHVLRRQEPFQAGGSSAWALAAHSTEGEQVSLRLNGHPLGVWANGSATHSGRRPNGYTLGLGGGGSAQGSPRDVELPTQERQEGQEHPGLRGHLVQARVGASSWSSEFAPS

SMILES: COc1ccc(CCNc2nc(N)c3nc(-c4ccco4)oc3n2)cc1 [Example 1, 7-amino-2-(2-furyl)-5-[2-(4-methoxyphenyl)ethyl]asino-oxazolo[5,4-d]pyrimidine]
- IC50 ([3H]-NECA displacement, PC 12 membranes, inferred from displacement at 10^-5 M and 10^-7 M, read-out: pIC50 (indicated by the % displacement values) (converted)): < 100 nM
- inhibition at 0.1 µM [1]: 59%
- inhibition at 10 µM [1]: 78%
